Measurements reported in patent US20200376287A1, “METHODS FOR INCREASING TGF-B SIGNALING” (TECHNION RESEARCH & DEVELOPMENT FOUNDATION LIMITED, priority 2019, published 2020).

B1: ovalbumin (protein, UniProt P01012 2-386, looked up)
Ovalbumin: GSIGAASMEFCFDVFKELKVHHANENIFYCPIAIMSALAMVYLGAKDSTRTQINKVVRFDKLPGFGDSIEAQCGTSVNVHSSLRDILNQITKPNDVYSFSLASRLYAEERYPILPEYLQCVKELYRGGLEPINFQTAADQARELINSWVESQTNGIIRNVLQPSSVDSQTAMVLVNAIVFKGLWEKAFKDEDTQAMPFRVTEQESKPVQMMYQIGLFRVASMASEKMKILELPFASGTMSMLVLLPDEVSGLEQLESIINFEKLTEWTSSNVMEERKIKVYLPRMKMEEKYNLTSVLMAMGITDVFSSSANLSGISSAESLKISQAVHAAHAEINEAGREVVGSAEAGVDAASVSEEFRADHPFLFCIKHIATNAVLFFGRCVSP
notes: orally consumed novel innocuous food antigen

System: neurons in the mid-posterior insular cortex (mpIC)
Assay: Arc expression in the mpIC of Arc-dVenus reporter mice after oral consumption
Type: in vivo
Conditions: for response of neurons in the mpIC (Arc expression) to oral consumption: Arc-dVenus reporter mice, compared with water
Description: The expression of Arc was evaluated by immunohistochemical staining for GFP (green) to amplify the signal of dVenus and co-localized with DAPI nuclear staining (blue). Dotted lines are based on Allen Brain Atlas and depict the cytoarchitectonic layers of the insular cortex (granular insula; GI, dysgranular insula; DI, agranular insula; AI) and the claustrum (CI). Scale bar, 200 μm. (1B) A graph showing manual quantification of Arc-positive cells that were identified by GFP and DAPI double-positive staining per region of interest (ROI=[…]) in mice that were exposed to water or OVA. Student's t-test; mean±s.e.m; n=3, 4; **P<0.01. (1C) Maps showing the location of the insular cortex in mice (upper left). Arc-expressing neurons following oral consumption of OVA were found in the mid-posterior region of the insula (upper right) that comprises both gustatory and visceral cortices (lower panel). (1D) A location map and micrographs showing validation of the injection site in the mpIC. Representative image describing the expression of the inhibiting form of designer receptors exclusively activated by designer drugs (DREADDs; Gi) in neurons following stereotactic injection of a viral vector (AAV8-hSyn-hM4Di (Gi)-mCherry), in the GI and DI layers of the mpIC ((0.14-0.18) mm Anterior-Posterior (AP); (3.6-3.8) mm Medial-Lateral (ML); (2.5-2.6) mm Dorsal-Ventral (DV)).
FIGS. 5A-5F include fluorescent micrographs, graphs, and location maps, showing representation of aversive information in the mpIC. […] The expression of Arc was evaluated as described in FIG. 1A. Dotted lines are based on Allen Brain Atlas, and depict the cytoarchitectonic layers of the insular cortex (granular insula; GI, dysgranular insula; DI, agranular insula; AI) and the claustrum (CI). Scale bar, 200 μm. (5B) Manual quantification of Arc-positive cells in the region of interest (ROI=[…]) was performed as described in FIG. 1A in mice that consumed water or denatonium benzoate. Student's t-test; mean±s.e.m; n=3, 5; *P<0.05. (5C) The images show Arc expression in the mpIC of Arc-dVenus reporter mice that were exposed to OVA (left panel) or denatonium benzoate (right panel). The numbers (1-6) represent the layers of the cerebral cortex. Scale bar, 200 μm. (5D) Graphs represent the difference in total Arc expression (left) and the distribution of Arc-positive cells in the 3 cytoarchitectonic layers of the insular cortex (GI, DI, and AI) following exposure of mice to OVA or denatonium benzoate. […] (5F) Graphs depict the total difference in Arc-positive cells in the ⅔ layer of the cerebral cortex (left) of the mpIC and expression of Arc in this layer divided by the insular layers (GI, DI, and AI). Student's t-test; mean±s.e.m; n=3, 5; *P<0.05, **P<0.01.
Thus far, the inventors exposed the mice only to positive appetitive signals, however, whether the mpIC also responds to aversive information that can inform about the presence of pathogens, left unclear. To answer this question the inventors used the Arc reporter mice, except this time they were exposed to the bitter substance denatonium benzoate.

Row | Molecule | response of neurons in the mpIC (Arc expression) to oral consumption | Arc-positive cells in the granular layer (GI) of the mpIC (denatonium benzoate (bitter) compared to OVA) | total number of activated neurons in the mpIC (denatonium benzoate compared to OVA) | Arc expression in the AI layer of the mpIC (OVA-consuming mice compared to mice exposed to denatonium benzoate)
1 | CC[N+](CC)(CC(=O)Nc1c(C)cccc1C)Cc1ccccc1 [denatonium benzoate] | neurons in the mpIC also respond | less Arc-positive cells | no significant difference | 
2 | B1 | respond to oral consumption of OVA |  |  | lower expression
